# Experimental data from patent US20200085838A1, “METHODS OF TREATING EPILEPSY AND NEURODEVELOPMENTAL DISORDERS” (Praxis Precision Medicines, Inc., priority 2017, published 2020).
# Experiments:
# Format in all cases: cell-based
# human R1882Q Nav1.2 = molecular target: T1, human R1882Q Nav1.2 (Homo sapiens, UniProt Q99250, R1882Q); assay: Whole-cell patch clamp of sodium currents (INa) in CHO cells transiently expressing R1882Q Nav1.2; conditions: R1882Q Nav1.2, CHO cells, mean±SEM
# T1 construct: expressed in transfected cells; host or cells: CHO cells
# T1 sequence (Q99250 whole entry R1882Q): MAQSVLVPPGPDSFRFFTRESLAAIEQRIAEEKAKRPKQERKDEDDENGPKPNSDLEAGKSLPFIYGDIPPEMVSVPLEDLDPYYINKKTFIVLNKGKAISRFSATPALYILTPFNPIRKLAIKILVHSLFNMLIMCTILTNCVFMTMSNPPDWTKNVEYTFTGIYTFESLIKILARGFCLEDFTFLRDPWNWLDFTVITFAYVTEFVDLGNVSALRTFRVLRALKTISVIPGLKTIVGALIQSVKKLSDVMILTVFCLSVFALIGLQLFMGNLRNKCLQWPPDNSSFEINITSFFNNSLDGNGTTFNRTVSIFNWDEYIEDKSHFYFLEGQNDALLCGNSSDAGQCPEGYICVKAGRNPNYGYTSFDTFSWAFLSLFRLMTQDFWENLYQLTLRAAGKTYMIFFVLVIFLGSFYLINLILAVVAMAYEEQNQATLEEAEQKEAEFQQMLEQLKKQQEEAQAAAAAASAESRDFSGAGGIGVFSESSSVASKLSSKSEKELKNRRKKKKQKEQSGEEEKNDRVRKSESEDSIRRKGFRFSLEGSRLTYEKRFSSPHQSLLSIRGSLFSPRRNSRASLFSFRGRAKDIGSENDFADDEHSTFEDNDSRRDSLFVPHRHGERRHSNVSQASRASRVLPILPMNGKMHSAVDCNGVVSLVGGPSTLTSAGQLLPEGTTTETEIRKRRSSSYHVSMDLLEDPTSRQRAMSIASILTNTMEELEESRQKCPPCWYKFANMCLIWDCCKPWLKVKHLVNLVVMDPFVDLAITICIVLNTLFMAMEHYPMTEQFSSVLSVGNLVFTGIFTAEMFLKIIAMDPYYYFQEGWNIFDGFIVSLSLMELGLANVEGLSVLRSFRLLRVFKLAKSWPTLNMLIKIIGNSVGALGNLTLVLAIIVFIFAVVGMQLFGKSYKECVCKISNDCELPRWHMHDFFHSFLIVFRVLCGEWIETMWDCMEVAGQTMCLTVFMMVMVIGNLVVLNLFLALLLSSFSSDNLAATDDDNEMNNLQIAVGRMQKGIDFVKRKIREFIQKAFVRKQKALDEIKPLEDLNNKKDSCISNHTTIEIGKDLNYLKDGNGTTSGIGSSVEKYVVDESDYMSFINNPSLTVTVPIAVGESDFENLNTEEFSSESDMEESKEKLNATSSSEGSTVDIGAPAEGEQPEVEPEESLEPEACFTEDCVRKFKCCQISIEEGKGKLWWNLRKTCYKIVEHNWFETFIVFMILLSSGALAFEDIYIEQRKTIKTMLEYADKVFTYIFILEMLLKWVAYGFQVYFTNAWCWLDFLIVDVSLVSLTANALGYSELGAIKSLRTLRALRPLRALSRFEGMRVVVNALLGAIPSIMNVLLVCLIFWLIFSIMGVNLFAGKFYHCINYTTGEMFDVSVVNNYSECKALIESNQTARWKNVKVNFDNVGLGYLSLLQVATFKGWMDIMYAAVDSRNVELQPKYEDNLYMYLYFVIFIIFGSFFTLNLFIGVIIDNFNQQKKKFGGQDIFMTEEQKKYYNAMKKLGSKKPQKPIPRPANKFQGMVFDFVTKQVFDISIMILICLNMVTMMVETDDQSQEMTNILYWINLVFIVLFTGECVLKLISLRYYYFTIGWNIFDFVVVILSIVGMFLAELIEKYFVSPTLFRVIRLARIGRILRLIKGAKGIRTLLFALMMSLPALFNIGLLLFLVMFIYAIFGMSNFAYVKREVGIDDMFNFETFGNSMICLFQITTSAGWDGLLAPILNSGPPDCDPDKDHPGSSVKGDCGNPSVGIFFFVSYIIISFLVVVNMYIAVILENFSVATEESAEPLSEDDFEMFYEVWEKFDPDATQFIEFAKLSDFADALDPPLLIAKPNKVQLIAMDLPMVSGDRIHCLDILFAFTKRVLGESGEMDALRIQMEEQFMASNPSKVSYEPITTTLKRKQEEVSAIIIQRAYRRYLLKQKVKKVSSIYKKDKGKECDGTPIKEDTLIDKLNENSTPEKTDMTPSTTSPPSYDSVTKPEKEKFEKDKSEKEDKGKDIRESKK
# [1] = molecular target: T2, human wild-type (WT) Nav1.2 (Homo sapiens, UniProt Q99250); assay: Whole-cell patch clamp of sodium currents (INa) in CHO cells transiently expressing wild-type Nav1.2; conditions: WT Nav1.2, CHO cells, mean±SEM
# T2 construct: expressed in transfected cells; host or cells: CHO cells
# T2 sequence (Q99250 whole entry): as the sequence (Q99250 whole entry R1882Q) above, with Q1882R counted along it
# human K905N Nav1.2 = molecular target: T3, human K905N Nav1.2 (Homo sapiens, UniProt Q99250, K905N); assay: Whole-cell patch clamp of sodium currents (INa) in CHO cells transiently expressing K905N Nav1.2; conditions: K905N Nav1.2, CHO cells, mean±SEM
# T3 construct: expressed in transfected cells; host or cells: CHO cells
# T3 sequence (Q99250 whole entry K905N): as the sequence (Q99250 whole entry R1882Q) above, with K905N, Q1882R counted along it
smiles,measurement,setting,value
"O=C1c2cc(-c3ccc(OC(F)(F)F)cc3)ccc2OCCN1Cc1ncccn1 [eleclazine, 4-(pyrimidin-2-ylmethyl)-7-(4-(trifluoromethoxy)phenyl)-3,4-dihydrobenzo[f][1,4]oxazepin-5(2H)-one]",Hill slope Late INa,human R1882Q Nav1.2; late INa at 100 ms,0.64 ± 0.2
same,Hill slope Peak INa,human R1882Q Nav1.2; peak INa,0.36 ± 0.14
same,Hill slope Late INa,"[1]; late INa at 100 ms, INaL enhanced with 3 nM ATX-II",0.94 ± 0.06
same,Hill slope Peak INa,[1]; peak INa,0.63 ± 0.07
same,Hill slope Late INa,human K905N Nav1.2; late INa at 100 ms,0.55 ± 0.06
same,Hill slope Peak INa,human K905N Nav1.2; peak INa,0.78 ± 0.2
